Data from article PMC3898987 (Bioorganic & Medicinal Chemistry, 2013).
Positions count from the first letter of the chain named.

Tests used:
[1] = molecular target: T1, 5-HT3AB receptor, 5-HT3B subunit I183A (Homo sapiens, UniProt O95264+P46098, I176A); assay: FlexStation membrane potential dye functional assay, HEK293 cells; conditions: 5-HT concentration-response, 5-HT3AB with 5-HT3B I183A
T1 sequence (P46098 24-478): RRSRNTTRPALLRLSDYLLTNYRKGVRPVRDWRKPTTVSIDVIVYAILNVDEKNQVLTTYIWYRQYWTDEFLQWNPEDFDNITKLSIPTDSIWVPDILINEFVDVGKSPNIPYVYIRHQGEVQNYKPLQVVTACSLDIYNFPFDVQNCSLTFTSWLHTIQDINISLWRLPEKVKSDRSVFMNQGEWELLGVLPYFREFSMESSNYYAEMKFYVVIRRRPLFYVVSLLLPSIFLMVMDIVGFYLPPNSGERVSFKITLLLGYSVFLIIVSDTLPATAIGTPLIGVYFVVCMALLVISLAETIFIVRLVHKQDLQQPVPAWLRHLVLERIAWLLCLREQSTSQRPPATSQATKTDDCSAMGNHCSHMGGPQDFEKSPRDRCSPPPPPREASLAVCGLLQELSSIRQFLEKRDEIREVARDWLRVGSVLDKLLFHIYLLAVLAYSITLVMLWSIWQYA
T1 sequence (O95264 22-441 I176A): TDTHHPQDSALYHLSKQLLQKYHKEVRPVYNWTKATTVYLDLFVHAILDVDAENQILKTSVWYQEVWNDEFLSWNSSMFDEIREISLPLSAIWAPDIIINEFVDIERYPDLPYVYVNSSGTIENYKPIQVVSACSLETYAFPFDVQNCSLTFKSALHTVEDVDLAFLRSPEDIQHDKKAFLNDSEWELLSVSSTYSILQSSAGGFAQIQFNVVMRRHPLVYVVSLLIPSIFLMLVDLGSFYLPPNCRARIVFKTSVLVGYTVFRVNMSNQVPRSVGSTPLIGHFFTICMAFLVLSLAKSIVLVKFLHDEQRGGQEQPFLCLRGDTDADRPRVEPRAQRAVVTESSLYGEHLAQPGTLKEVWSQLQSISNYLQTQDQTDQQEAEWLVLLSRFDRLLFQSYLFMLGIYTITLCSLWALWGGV
Method: (§1) For FlexStation assays, transfected cells were plated on 96-well plates and incubated 1–2 days before assay.
(§2) Fluorometric studies were undertaken using a FlexStation® (Molecular Devices, Sunnyvale, CA, USA) as previously described.[11]
(§3) Fluorescence was measured every 2 s for 200 s. […] Concentration–response and inhibition curves were obtained for each mutant, and the fluorescence values were normalized to the maximal response.

[2] = molecular target: T2, 5-HT3AB receptor, 5-HT3B subunit Y143A (Homo sapiens, UniProt O95264+P46098, Y136A); assay: as above; conditions: 5-HT concentration-response, 5-HT3AB with 5-HT3B Y143A
T2 sequence (P46098 24-478): T1 sequence (P46098 24-478)
T2 sequence (O95264 22-441 Y136A): T1 sequence (O95264 22-441 I176A) with Y115A, A155I
Method: as §1, §2, §3

5-HT3A receptor Y73A = molecular target: T3, 5-HT3A receptor Y73A (Homo sapiens, UniProt P46098, Y68A); assay: radioligand saturation binding, transfected HEK293 membranes; conditions: [3H]-palonosetron saturation, 5-HT3A Y73A, 4 °C, 24 h
T3 sequence (P46098 24-478 Y68A): T1 sequence (P46098 24-478) with Y45A
Method: (§4) Human embryonic kidney (HEK) 293 cells were cultured on 90 mm tissue culture plates at 37 °C and 7% CO2 in a humidified atmosphere. They were grown in DMEM:F12 (Dulbecco’s Modified Eagle’s Medium/Nutrient Mix F12 (1:1)) with GlutaMAX I™ containing 10% fetal calf serum and passaged when confluent. For radioligand binding studies, cells in 90 mm dishes were transfected at 60–70% confluency using polyethyleneimine and incubated for 3–4 days before use. For FlexStation assays, transfected cells were plated on 96-well plates and incubated 1–2 days before assay. […]
(§5) Eight-point binding assays were performed to produce saturation binding curves. […] Radioactive counts were measured using a Beckman LS6000SC liquid scintillation counter (Fullerton, California, USA).
(§6) Data were analyzed by iterative curve fitting using GraphPad Prism v5 (San Diego, CA) according to the following equation: B=Bmax[L]^n/kdn+[L]^n where B is the amount of bound radioligand, Bmax is the maximum specific binding at equilibrium, [L] is the concentration of radioligand, Kd is the equilibrium dissociation constant of the radioligand, and n is the Hill coefficient.

5-HT3A receptor F130Y = molecular target: T4, 5-HT3A receptor F130Y (Homo sapiens, UniProt P46098, F125Y); assay: as above; conditions: [3H]-palonosetron saturation, 5-HT3A F130Y, 4 °C, 24 h
T4 sequence (P46098 24-478 F125Y): T1 sequence (P46098 24-478) with F102Y
Method: as §4, §5, §6

In the case of `NCCc1c[nH]c2ccc(O)cc12` [5-HT, serotonin], the “Hill Coefficient” value [1] is reported as 1.2 ± 0.2 and the “Hill Coefficient” value [2] is reported as 1.3 ± 0.2.

Compound `O=C1c2cccc3c2[C@H](CCC3)CN1[C@@H]1CN2CCC1CC2` [Palonosetron] has a Kd (5-HT3A receptor Y73A) of 0.87 ± 0.04 nM and a Kd (5-HT3A receptor F130Y) of 0.26 ± 0.09 nM.
